Assay results as given in the RepoRT retention time repository.

Assay: Agilent ZORBAX 300 SB-C18, 150 × 1 mm, 3.5 µm; A: water + 0.01% heptafluorobutyric acid; B: acetonitrile + 0.01% heptafluorobutyric acid; gradient (min/%B) 0/0 100/90
Conditions: stereoisomer not certain

SMILES | LC retention time
CCOc1ccc(C(c2c[nH]c3ccccc23)c2c[nH]c3ccccc23)cc1 | 17.2 min
CCCc1cc(C(=O)O)ccn1 | 6.01 min
CC(C)N1CCNCC1 | 6.94 min
Nc1cc(N)[nH]c(=S)n1 | 6.42 min
Cc1cc(C(=O)N2CCCCC2)c2c(=O)n(CC(=O)Nc3ccccc3)c(=O)n(-c3ccccc3)c2n1 | 13.5 min
Cc1nc2c(ccc3[nH]c(C)nc32)[nH]1 | 7.32 min
COc1ccc(N2C(=O)C=CC2=O)cc1 | 9.62 min
CN(C)CCCN1c2ccccc2CCc2ccccc21 | 11.6 min
O=C1C=CC(=O)N1c1ccc(N2CCCCC2)cc1 | 9.22 min
CCN(CC)CCOC(=O)C(c1ccccc1)C1CCCCC1 (stereo not given) | 13 min
NC(=O)Cc1ccc(O)cc1 | 5.97 min
CCCCNCC(=O)Nc1ccc(NC(=O)CNCCCC)cc1 | 8.26 min
Cc1ccncn1 | 6.89 min
CC(=O)CC(C)(C)N | 6.26 min
CCCC(=O)C1CCNCC1 | 7.57 min
Cc1ccc(C=C2CN(C)CC(=Cc3ccc(C)cc3)C2=O)cc1 | 12.3 min
c1ccc(C(c2ccccc2)c2nc(-c3ccncc3)no2)cc1 | 14.9 min
Cc1cccc(C=NNC(=O)c2cc3ccccc3cc2O)c1 | 14.9 min
CC(C)(C)NCCNC(C)(C)C | 7.46 min
CC(C)(C)NCC(O)COc1cccc2c1CC(O)C(O)C2 (stereo not given) | 8.31 min
CNCc1n[nH]c(=O)[nH]1 | 2.58 min
CCCCN=CC1=C(O)CC(c2ccccc2)CC1=O (stereo not given) | 13.3 min

SMILES | LC retention time
Cc1oc(C)c(C(N)=O)c1C(N)=O | 6.82 min
COc1ccc(NC(=O)c2ccc3c(c2)NC(=O)CO3)cc1OC | 9.62 min
CCCNC(C)C(=O)Nc1c(C)csc1C(=O)OC (stereo not given) | 9.27 min
CCn1cc(-c2ccn[nH]2)cn1 | 7.93 min
CCOC(=O)C(Cc1ccccc1)n1cccc1 (stereo not given) | 15.9 min
COc1cc2c(cc1OC)NC(=O)C2 | 7.73 min
c1cnccn1 | 5.91 min
CC(C)NCC(O)COc1ccc(COCCOC(C)C)cc1 (stereo not given) | 10 min
Cn1c(=O)c(=O)n(CC(=O)c2ccc3c(c2)CCCC3)c2ccccc21 | 14.1 min
Cc1n[nH]c(=O)nc1NC1CCCCC1 | 8.28 min
CCC(C)C(NC(=O)C1CCCN1)C(=O)O (stereo not given) | 7.86 min
CC(=O)Oc1ccccc1C(=O)NC(C)(C)C | 11.2 min
CC(C)c1ccc(CC(NC(=O)c2ccccc2)C(=O)NCC(=O)O)cc1 (stereo not given) | 12.5 min
O=c1nc(NN=Cc2cccnc2)cn[nH]1 | 6.94 min
O=CN1CCN(C=O)CC1 | 3.45 min
Cc1ccc2nc(C)cc(C(=O)O)c2c1 | 6.16 min
O=Cc1ccc[nH]1 | 6.97 min
Cn1c(=O)c2cc(S(=O)(=O)O)ccc2n(C)c1=O | 5.36 min
CN(C)c1nc(N)nc(N(C)C)n1 | 8.03 min
COc1cc(C)c(NC(C)=O)c(C)c1 | 8.85 min
NC(=O)N1CCC(CCCC2CCN(C(N)=O)CC2)CC1 | 9.11 min
CCC(C)N1CNc2c(c(=O)[nH]c(=O)n2Cc2ccccc2)C1 (stereo not given) | 8.19 min

SMILES | LC retention time
Cc1ccc2nc(-c3nn[nH]n3)ccc2c1 | 10.5 min
Cc1ccc2nc(C)[nH]c2c1 | 8.32 min
CC1(C)CC(=O)C=C(NCC2NCCc3ccccc32)C1 (stereo not given) | 8.52 min
CC(C(=O)c1ccccc1)[n+]1ccccc1 (stereo not given) | 8.43 min
NC1CCOC1=O (stereo not given) | 3.11 min
Cc1ccc(C)c(NC(=O)C(=O)NCC(C)O)c1 (stereo not given) | 10.5 min
Cc1ccc(CN)cc1 | 7.92 min
Cc1ccc2c(c1)C1CN(C)CCC1N2C(=O)CCCCCN1C(=O)c2ccccc2C1=O (stereo not given) | 10.6 min
CCCCOC(=O)c1ccc(NC(=O)CCCC)cc1 | 16.3 min
O=C(NCCCCc1ccccc1)C(=O)NCc1ccco1 | 14.3 min
CNCCCCCCNC | 7.03 min
CC1(C)SC2C(NC(=O)Cc3ccccc3)C(=O)N2C1C(=O)O (stereo not given) | 10.5 min
c1cc(CCCc2ccncc2)ccn1 | 7.37 min
Cc1ccccc1-n1nnnc1-c1ccc(-c2nnnn2-c2ccccc2C)cc1 | 15.3 min
COc1ccc(-n2c(O)c(Cc3ccc(OC)c(OC)c3)c(=O)[nH]c2=O)cc1 | 10.7 min
CCOC(=O)C(Cc1ccc(NC(=O)c2ccccc2)cc1)N1C(=O)c2ccccc2C1=O (stereo not given) | 15.2 min
NC(=O)CCN1CCNCC1 | 6.16 min
CCOc1ccc(Cc2c(O)n(-c3ccc(CC)cc3)c(=O)[nH]c2=O)cc1 | 14.4 min
COc1ccc(N=Nc2c(N)n[nH]c2N)cc1 | 9.61 min
CCCCCCCCN1C2=C(C(=O)CC(C)(C)C2)C(c2ccccc2)C2=C1CC(C)(C)CC2=O | 20.9 min
O=C(O)c1ccncn1 | 2 min
Cn1c2c(c(=O)[nH]c1=O)C(c1ccccc1)C1=C(N2)c2ccccc2C1=O (stereo not given) | 10.6 min

SMILES | LC retention time
C#Cc1cncn1C | 6.39 min
CN(C)c1ccc(CNC2CC(C)(C)NC(C)(C)C2)cc1 | 8.12 min
O=S(=O)(O)CCNC1CCCCC1 | 5.78 min
CC(=O)C1C(=O)C=C(c2ccco2)CC1c1ccco1 (stereo not given) | 13.2 min
COc1ccc2c(c1)C(C)CC(C)(C)N2 (stereo not given) | 9.43 min
CC1(C)SC2C(NC(=O)C(N)c3ccc(O)cc3)C(=O)N2C1C(=O)O (stereo not given) | 7.52 min
COc1ccc(C2N(c3ccccc3)CCN2c2ccccc2)cc1 | 18.6 min
CCOc1ccc(C(=O)NNC(=O)COc2ccc(C(C)CC)cc2)cc1 (stereo not given) | 15 min
c1ccnnc1 | 4.58 min
CN(C)c1ccc(C(=O)N2CCCC2)cc1 | 10.4 min
CCc1ccccc1NCC(=O)O | 11.1 min
CCc1cnccn1 | 8.09 min
COc1ccc(CCN2C(=O)C(C)C(Cc3ccc(C)cc3)C2=O)cc1OC (stereo not given) | 15.9 min
CC(C)(C)c1ccc(C(=O)NN=Cc2cccnc2)cc1 | 11.2 min
CC(=O)NC(Cc1ccc(O)cc1)C(N)=O (stereo not given) | 6.07 min
Cc1ccoc1CC[N+](C)(C)C | 7.96 min
NNC(=O)CCCO | 2.37 min
CN1CCN(C(=O)c2nn(C)c(=O)c3ccccc23)CC1 | 7.52 min
COC(=O)CC1CC(C)(C)NC(C)(C)C1 | 8 min
CCCNC | 5.85 min

Continued, values first:

LC retention time | SMILES
7.75 min | O=C(Nc1ccc2[nH]c(=O)[nH]c2c1)c1ccco1
8.44 min | O=c1cc(O)c2ccccc2[nH]1
7.74 min | Cc1ccc2nc[nH]c2c1
7.68 min | CCNCc1ccccc1
8.37 min | c1ccc2c(-n3ccnc3)nccc2c1
9.55 min | Cn1c(C2CCCCC2)nc2ccccc21
8.19 min | CNc1ccccc1C
16.8 min | Cc1ccc(C)n1Cc1ccccc1
11.7 min | COc1cccc(C=NNC(=O)c2ccccc2)c1OC
13.4 min | COc1ccc(-c2oc3ccccc3c(=O)c2OC)cc1OC
7.61 min | c1ccc2c(c1)CCCN2
14.9 min | c1ccc(-c2ccnc(-c3cc(-c4ccccc4)ccn3)c2)cc1
14.5 min | Nc1cccc2cc(-c3ccccc3)oc12
8.61 min | CC(C)c1ccccc1NC(=O)CN
10.9 min | CC(C)Cc1nc2ccccc2n1CC(C)C
7.32 min | Nc1ccnc2ccccc12
8.71 min | Nc1ccc(Cc2ccncc2)cc1
8.42 min | Cc1cc(=O)[nH]c2c(C)c(N)ccc12
13.7 min | Oc1cccc(-c2cc(-c3ccccc3)c3c(ccc4ncccc43)n2)c1
7.8 min | NC1C(=O)Nc2ccccc21 (stereo not given)
9.59 min | Cc1cccc(-c2ccnc(=S)[nH]2)c1
6.66 min | Nc1ccccc1N

LC retention time | SMILES
9.42 min | NC(=O)CCCc1c[nH]c2ccccc12
5.5 min | Cc1cc(C(=O)O)nc2ccccc12
13.8 min | c1coc(-c2c3c(nc4ccc5ccccc5c24)CCCC3)c1
8.68 min | CC(N)=C1C(=O)C(=O)N(C)C1c1ccccc1 (stereo not given)
7.66 min | CC1Cc2ccccc2N1 (stereo not given)
12.2 min | O=C(C=Cc1ccccc1O)c1ccc(O)cc1O
17.1 min | CC1(C)CC(=O)c2c(-c3ccccc3)nc3ccc4ccccc4c3c2C1
7.8 min | Nc1nc(=O)n2c(n1)oc1ccccc12
18.8 min | c1ccc(Cn2c3ccccc3c3ccccc32)cc1
11.8 min | Cc1cccc(Oc2cc(C)nc3ccc(C)cc23)c1
13.7 min | COc1ccc2c(=O)cc(-c3ccccc3)oc2c1OC
3.44 min | Nc1ccncn1
10.8 min | CCNC(=O)C(=O)NCCc1c[nH]c2ccccc12
8.73 min | O=Cc1cccc2ncccc12
15.4 min | Cc1cccc2c(=O)cc(-c3ccccc3)oc12
13.2 min | Cc1cc(C)nc(SCc2nc3ccccc3nc2C)n1
5.74 min | Nc1ccc2[nH]ncc2c1
10.9 min | COC(=O)c1c[nH]c2ccccc12
13.1 min | Cc1ccc(CNC(=S)Nc2ccccc2)n1C
11.7 min | CCn1cc(CCO)c2ccccc21
16.7 min | O=C(C=Cc1ccccc1)c1cc2ccccc2o1
12.5 min | Cc1ccccc1Nc1nc(Nc2ccccc2C)c2ccccc2n1
